This assay deals with T1, Human PD-L1/PD-1 (Homo sapiens, UniProt Q9NZQ7).
T1 construct: TVMV protease cleavage site (C); made in house; host or cells: HEK293T cells
The assay is described as follows: HTRF Human PD-L1/PD-1 binding assay (PD-1-Ig/PD-L1-His). The following applies: PD-L1-His 10 nM, PD-1-Ig 20 nM. From the text:
Methods for Testing the Ability of Macrocyclic Peptides to Compete for the Binding of PD-1 to PD-L1 Using Homogenous Time-Resolved Fluorescence (HTRF) Binding Assays
The ability of the macrocyclic peptides of the present disclosure to bind to PD-L1 was investigated using a PD-1/PD-L1 Homogenous Time-Resolved Fluorescence (HTRF) binding assay.
Homogenous Time-Resolved Fluorescence (HTRF) Assays of Binding of Soluble PD-1 to Soluble PD-L1. Soluble PD-1 and soluble PD-L1 refers to proteins with carboxyl-end truncations that remove the transmembrane-spanning regions and are fused to heterologous sequences, specifically the Fc portion of the human immunoglobuling G sequence (Ig) or the hexahistidine epitope tag (His). All binding studies were performed in an HTRF assay buffer consisting of dPBS supplemented with 0.1% (w/v) bovine serum albumin and 0.05% (v/v) Tween-20. For the PD-1-Ig/PD-L1-His binding assay, inhibitors were pre-incubated with PD-L1-His (10 nM final) for 15 m in 4 μl of assay buffer, followed by addition of PD-1-Ig (20 nM final) in 1 μl of assay buffer and further incubation for 15 m. PD-L1 fusion proteins from either human, cynomolgus macaques, or mouse were used. HTRF detection was achieved using europium crypate-labeled anti-Ig monoclonal antibody (1 nM final) and allophycocyanin (APC) labeled anti-His monoclonal antibody (20 nM final). Antibodies were diluted in HTRF detection buffer and 5 μl was dispensed on top of binding reaction. The reaction was allowed to equilibrate for 30 minutes and signal (665 nm/620 nm ratio) was obtained using an EnVision fluorometer. Additional binding assays were established between PD-1-Ig/PD-L2-His (20 and 5 nM, respectively), CD80-His/PD-L1-Ig (100 and 10 nM, respectively) and CD80-His/CTLA4-Ig (10 and 5 nM, respectively). Competition studies between biotinylated Compound No. 71 and human PD-L1-His were performed as follows. Macrocyclic peptide inhibitors were pre-incubated with PD-L1-His (10 nM final) for 60 minutes in 4 μl of assay buffer followed by addition of biotinylated Compound No. 71 (0.5 nM final) in 1 μl of assay buffer. Binding was allowed to equilibrate for 30 minutes followed by addition of europium crypated labeled Streptavidin (2.5 pM final) and APC-labeled anti-His (20 nM final) in 5 μl of HTRF buffer. The reaction was allowed to equilibrate for 30 m and signal (665 nm/620 nm ratio) was obtained using an EnVision fluorometer.
Recombinant Proteins. Carboxyl-truncated human PD-1 (amino acids 25-167) with a C-terminal human Ig epitope tag [hPD-1 (25-167)-3S-IG] and human PD-L1 (amino acids 18-239) with a C-terminal His epitope tag [hPD-L1([…])-tobacco vein mottling virus protease cleavage site (TVMV)-His] were expressed in HEK293T cells and purified sequentially by rProteinA affinity chromatography and size exclusion chromatography.
(In TR-FRET formats the signal depends on donor and acceptor labels being close together.)

Where [1] appears, read: class symbol, read-out: HTRF Human PD-L1/PD-1 Binding Assay IC50 Range.

Read-outs that look alike come from different tables or passages of the source. Where a SMILES comes first, the peptide text is derived from it. Bridges are numbered along the chain shown (N, C = ends). [ ]: non-standard residue; d: D form. Hyp = O=C(O)[C@@H]1C[C@@H](O)CN1; NMeNle = CCCC[C@H](NC)C(=O)O; Pip = O=C(O)[C@@H]1CCCCN1; Dap = NC[C@H](N)C(=O)O

T1 sequence (Q9NZQ7 with tags, fused parts or gaps): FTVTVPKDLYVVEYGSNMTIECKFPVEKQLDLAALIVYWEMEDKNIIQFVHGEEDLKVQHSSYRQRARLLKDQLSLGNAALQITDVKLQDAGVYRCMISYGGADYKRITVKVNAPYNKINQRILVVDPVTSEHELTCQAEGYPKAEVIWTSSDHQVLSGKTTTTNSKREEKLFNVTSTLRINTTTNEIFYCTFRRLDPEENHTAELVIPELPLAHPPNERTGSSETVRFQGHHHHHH

As to `CCCC[C@H]1C(=O)N(C)[C@@H](CCCC)C(=O)N[C@@H](CCC(=O)O)C(=O)N[C@H](C(=O)NCC(N)=O)CSCC(=O)N[C@@H](Cc2ccc(O)cc2)C(=O)N2CCCC[C@H]2C(=O)N[C@@H](CC(N)=O)C(=O)N2CCC[C@H]2C(=O)N[C@@H](Cc2cnc[nH]2)C(=O)N[C@@H](CCC(N)=O)C(=O)N2C[C@H](O)C[C@H]2C(=O)N[C@@H](Cc2c[nH]c3ccccc23)C(=O)N[C@@H](CO)C(=O)N[C@@H](Cc2c[nH]c3ccccc23)C(=O)N1C` [Example 1250] ({CH2CO}-Y[Pip]NPHQ[Hyp]WSW[NMeNle][NMeNle]ECG-NH2; thioether N-14), under setting [1], the IC50 is 1 to 9.9 nM.
Same read-out and setting: the same measure for `CCCC[C@H]1C(=O)N(C)[C@@H](CCCC)C(=O)N[C@@H](C)C(=O)N[C@H](C(=O)NCC(N)=O)CSCC(=O)NC(Cc2ccc(O)cc2)C(=O)N2CCCC[C@H]2C(=O)N[C@@H](CC(N)=O)C(=O)N2CCC[C@H]2C(=O)N[C@@H](Cc2c[nH]cn2)C(=O)N[C@@H](CC(C)C)C(=O)N2C[C@H](O)C[C@H]2C(=O)N[C@@H](Cc2c[nH]c3ccccc23)C(=O)N[C@@H](CO)C(=O)N[C@@H](Cc2c[nH]c3ccccc23)C(=O)N1C` (stereo partly drawn) [Example 1251]: 1 to 9.9 nM; for `CCCC[C@H]1C(=O)N(C)[C@@H](CCCC)C(=O)N[C@@H](CCC(=O)O)C(=O)N[C@H](C(=O)NCC(N)=O)CSCC(=O)N[C@@H](Cc2ccc(O)cc2)C(=O)N2CCCC[C@H]2C(=O)N[C@@H](CC(N)=O)C(=O)N2CCC[C@H]2C(=O)N[C@@H](Cc2cnc[nH]2)C(=O)N[C@@H](CCC(=O)O)C(=O)N2C[C@H](O)C[C@H]2C(=O)N[C@@H](Cc2c[nH]c3ccccc23)C(=O)N[C@@H](CO)C(=O)N[C@@H](Cc2c[nH]c3ccccc23)C(=O)N1C` [Example 1252] ({CH2CO}-Y[Pip]NPHE[Hyp]WSW[NMeNle][NMeNle]ECG-NH2; thioether N-14): 1 to 9.9 nM.
As to `CCCC[C@H]1C(=O)N(C)[C@@H](CCCC)C(=O)N[C@@H](C)C(=O)N[C@H](C(=O)NCC(N)=O)CSCC(=O)N[C@@H](Cc2ccc(O)cc2)C(=O)N2CCCC[C@H]2C(=O)N[C@@H](CC(N)=O)C(=O)N2CCC[C@H]2C(=O)N[C@@H](Cc2cnc[nH]2)C(=O)N[C@@H](CCC(N)=O)C(=O)N2C[C@H](O)C[C@H]2C(=O)N[C@@H](Cc2c[nH]c3ccccc23)C(=O)N[C@@H](CO)C(=O)N[C@@H](Cc2c[nH]c3ccccc23)C(=O)N1C` [Example 1255], the IC50 (read-out: HTRF Human PD-L1/PD-1 Binding Assay IC50) is 2.6 nM.
In the case of `CCCC[C@H]1C(=O)N(C)[C@@H](CCCC)C(=O)N[C@@H](CCC(=O)O)C(=O)N[C@H](C(=O)NCC(N)=O)CSCC(=O)N[C@@H](Cc2ccc(O)cc2)C(=O)N2CCCC[C@H]2C(=O)N[C@@H](CC(=O)O)C(=O)N2CCC[C@H]2C(=O)N[C@@H](Cc2cnc[nH]2)C(=O)N[C@@H](CCC(=O)O)C(=O)N2C[C@H](O)C[C@H]2C(=O)N[C@@H](Cc2c[nH]c3ccccc23)C(=O)N[C@@H](CO)C(=O)N[C@@H](Cc2c[nH]c3ccccc23)C(=O)N1C` [Example 1256] ({CH2CO}-Y[Pip]DPHE[Hyp]WSW[NMeNle][NMeNle]ECG-NH2; thioether N-14), the IC50 under setting [1] fell in the range of 1 to 9.9 nM.
With `CCCC[C@H]1C(=O)N(C)[C@@H](CCCC)C(=O)N[C@@H](C)C(=O)N[C@H](C(=O)NCC(N)=O)CSCC(=O)N[C@@H](Cc2ccc(O)cc2)C(=O)N2CCCC[C@H]2C(=O)N[C@@H](CC(=O)O)C(=O)N2CCC[C@H]2C(=O)N[C@@H](CN)C(=O)N[C@@H](CCC(N)=O)C(=O)N2C[C@H](O)C[C@H]2C(=O)N[C@@H](Cc2c[nH]c3ccccc23)C(=O)N[C@@H](CO)C(=O)N[C@@H](Cc2c[nH]c3ccccc23)C(=O)N1C` [Example 1257] ({CH2CO}-Y[Pip]DP[Dap]Q[Hyp]WSW[NMeNle][NMeNle]ACG-NH2; thioether N-14), under setting [1], the IC50 was in the range of 1 to 9.9 nM.

(Values after patent publication US10538555B2, “Macrocyclic inhibitors of the PD-1/PD-L1 and CD80(B7-1)/PD-L1 protein/protein interactions” (BRISTOL-MYERS SQUIBB COMPANY, priority 2014, dated 2020).)
